Series [1] is described as follows: pulsating bubble technique ("bubble assay" of Enhorning, Enhorning Surfactometer). In kind it is physicochemical. The following applies: peptide 10% by weight of PL, 37° C., negative pressure, mean of 3; for Pressure Gradient 15″: 15 seconds; for Pressure Gradient 1′: 1 minute; for Pressure Gradient 5′: 5 minutes. The method, then:
Measurements of surface pressure across an air-liquid interface (expressed in negative cm of H2O pressure) at minimal (γmin) bubble radius were determined at various times using the pulsating bubble technique described by Enhorning, J. Appl. Physiol. 43: 198-203 (1977).
Briefly, the Enhorning Surfactometer (Surfactometer International, Toronto, Ontario) measures the pressure gradient (ΔP) across a liquid-air interface of a bubble that pulsates at a rate of 20 cycles/min between a maximal (0.55 mm) and minimal (0.4 mm) radius. The bubble, formed in a 37° C., water-enclosed, 20-μl sample chamber, is monitored through a microscopic optic while the pressure changes are recorded on a strip chart recorder calibrated for 0 and −2 cm H2O.
Each of the surfactants identified in Table 5 was assayed for surfactant activity as evidenced by their ability to reduce surface tension in vitro using the “bubble assay” of Enhorning as described above.
After admixture with solvent, each peptide was admixed with phospholipids (PL), DPPC:PG, 3:1, in chloroform in a glass tube so that the amount of polypeptide added equaled one-tenth (10% by. weight) of the amount of PL added, to form a surfactant according to either method A, B or C.
Each of the surfactants was then assayed for surfactant activity as evidenced by their ability to reduce surface tension in vitro in the bubble assay performed as described above. The pressure gradient (ΔP) is a measure of surfactant activity in the polypeptide-PL third admixture which was determined using an Enhorning Surfactometer as described above. Measurements were obtained at time points of 15 seconds (15″), 1 minute (1′) and 5 minutes (5′) and are expressed as a mean of three independent measurements of the indicated polypeptide-PL admixture.

Series [2] is described as follows: observation whether peptide/solvent admixture formed a solution or a suspension. In kind it is physicochemical. As to the method:
Each polypeptide was admixed with the indicated solvent at a concentration of 2.5 mg of polypeptide per ml of solvent. […] Those admixtures forming a suspension were further admixed by water bath sonication for 10 seconds to form a very fine suspension, sufficient for pipetting using glass pipettes.

In series [3] the test system is fetal rabbit lung. As to the kind of experiment: dynamic compliance, fetal rabbit model. The format is in vivo. The following applies: single animal per line. As to the method:
A subject polypeptide was first admixed with solvent as described in Example 3. […]
Surfactant was instilled in rabbit fetal lung by injection into the trachea from a single syringe of the following three components such that the components exit the syringe in the following order: (1) 0.05 ml air; (2) 0.1 ml of a synthetic surfactant prepared in Example 4A or either 2 mg of PL or 2 mg of native surfactant; and (3) 0.1 ml air.
From one syringe, a 0.1 ml aliquot of synthetic surfactant prepared as described in Example 4A (or 2 mg of NS or of PL), was instilled into the rabbit trachea as described above, followed by injection of 0.05 ml lactated Ringer's Solution and 0.2 ml air from a second syringe.
From one syringe, 0.1 ml of a synthetic surfactant prepared as described in Example 4A (or 2 mg of NS or of PL), 0.15 ml air, 0.1 ml saline, and 0.3 ml air were injected into the trachea as described above. Two subsequent aliquots of 0.3 ml air were given.
The surfactant activity of exemplary polypeptides of this invention was studied using the methods described in detail previously by Revak, et al, Am. Rev. Respir. Dis. 134: […] (1986), with the exceptions noted hereinbelow.
Twenty-seven day gestation fetal rabbits were delivered by hysterotomy and immediately injected with 0.05 ml Norcuron (Organon, Inc., N.J.) to prevent spontaneous breathing. The fetal rabbits were then weighed and a small cannula was inserted into the trachea by tracheotomy surfactant prepared as described above was then instilled into the fetal rabbit lung by one of the above instillation protocols.
Following instillation the rabbit was placed in a specially designed plethysmograph (containing a Celesco transducer) connected to a ventilator (Baby Bird, Baby Bird Corp., Palm Springs, Calif.) and the instilled lung was ventilated at a rate of 30 cycles per minute with a peak inspiratory pressure of 25 cm H2O, a positive end expiratory pressure of 4 cm H2O and an inspiratory time of 0.5 seconds. In some studies, dynamic compliance measurements were made at various times throughout the ventilation procedure. In others, static compliance measurements were made following ventilation.
Using the plethysmograph, dynamic compliance measurements were made at various times throughout a 60 minute ventilation period. […] Compliance was calculated by the formula below. [formula]
The above equation was solved with a multiple linear regression for C and R. The compliance (C) represents the elastic nature of the lungs and the resistance (R) represents the pressure necessary to overcome the resistance to the flow of gas into and out of the lungs.

Series [4] concerns fetal rabbit lung. As to the kind of experiment: static compliance, fetal rabbit model. The format is in vivo. The following applies: fetal rabbits, after 30 minutes of ventilation, instillation protocols 1 and 5 (FIGS. 2 and 3). The method, then: A subject polypeptide was first admixed with solvent as described in Example 3. The resulting admixture was further admixed with phospholipid (PL) so that the amount of polypeptide added was either 3%, 7% or 10% by weight of the amount of PL added as indicated below.
Fetal rabbits were treated by injection into the trachea of a 0.1 ml solution that contained either a synthetic surfactant prepared in Example 4A or either 2 mg of native surfactant prepared as described in Example 1 of U.S. Pat. No. 5,260,273 (incorporated by reference herein) or 2 mg PL.
Fetal rabbits were treated by injection into the trachea from a single syringe the following four components such that the four components exit the syringe upon injection in the order listed: (1) 0.2 ml solution that contains either a synthetic surfactant prepared in Example 4A or either 4 mg of native surfactant, or 4 mg PL; (2) a 0.15 ml volume of air; (3) a 0.1 ml normal saline solution; and (4) a 0.3 ml volume of air. The above injection was then repeated 15 minutes after the first injection. […]
Static compliance measurements were made after 30 minutes of ventilation. […] The volume of air required to reach static pressures of 5, 10, 15, 20, 25 and 30 cm H2O was measured during both inflation and deflation phases to generate static pressure to volume curves as a measure of static compliance.

“And” between values parts separate entries of the source, which are not always exact repeats. Identical values can stand only once. Marks after values point to notes of the source that are not given here.

As for ERYSVILLDTLLGRMLPQLVCRLVLR [p51-76], in series [1] (PL (DPPC:PG 3:1) 10 mg/ml), the “Pressure Gradient 15″” value was 0.99 cm of H2O, the “Pressure Gradient 1′” value is reported as 0.91 cm of H2O and the “Pressure Gradient 5′” value is 0.42 cm of H2O. The “Admixture Formed” value in series [2] (2.5 mg of polypeptide per ml of solvent, solvent 37% chloroform 63% methanol) is recorded as “solution”. Also, in series [3] (10% peptide to PL, Protocol 4), the “Dynamic Compliance, 10 minutes after surfactant instillation” value was 33 ml air/cm H2O (g body weight × 10^6) and 10 ml air/cm H2O (g body weight × 10^6) and 15 ml air/cm H2O (g body weight × 10^6); the “Dynamic Compliance, 20 minutes after surfactant instillation” value is 22 ml air/cm H2O (g body weight × 10^6) and 11 ml air/cm H2O (g body weight × 10^6) and 36 ml air/cm H2O (g body weight × 10^6); the “Dynamic Compliance, 30 minutes after surfactant instillation” value (shortened to “Dynamic Compliance, 30 minutes”) is 56 ml air/cm H2O (g body weight × 10^6) and 186 ml air/cm H2O (g body weight × 10^6) and 109 ml air/cm H2O (g body weight × 10^6); the “Dynamic Compliance, 40 minutes after surfactant instillation” value is 87 ml air/cm H2O (g body weight × 10^6) and 358 ml air/cm H2O (g body weight × 10^6) and 241 ml air/cm H2O (g body weight × 10^6). Besides, in series [3] (10% peptide to PL, Protocol 4), the “Dynamic Compliance, 50 minutes after surfactant instillation” value is 124 ml air/cm H2O (g body weight × 10^6) and 141 ml air/cm H2O (g body weight × 10^6) and 264 ml air/cm H2O (g body weight × 10^6); the “Dynamic Compliance, 60 minutes after surfactant instillation” value (shortened to “Dynamic Compliance, 60 minutes”) is 85 ml air/cm H2O (g body weight × 10^6) and 144* ml air/cm H2O (g body weight × 10^6) and 301 ml air/cm H2O (g body weight × 10^6).
In the case of ERYSVILLDTLLGRMLPQLVCRLVLRCSMD [p51-80], in series [1] (PL (DPPC:PG 3:1) 10 mg/ml), the “Pressure Gradient 15″” value was 0.92 cm of H2O, the “Pressure Gradient 1′” value was 0.89 cm of H2O and the “Pressure Gradient 5′” value is recorded as 0.48 cm of H2O. For the same sequence, the “Admixture Formed” value in series [2] (2.5 mg of polypeptide per ml of solvent, solvent 45% chloroform 55% methanol) is on record as “solution”. Moreover, in series [3] (10% peptide to PL, Protocol 4), the “Dynamic Compliance, 10 minutes after surfactant instillation” value was 17 ml air/cm H2O (g body weight × 10^6) and 76 ml air/cm H2O (g body weight × 10^6) and 23 ml air/cm H2O (g body weight × 10^6); the “Dynamic Compliance, 20 minutes after surfactant instillation” value was 41 ml air/cm H2O (g body weight × 10^6) and 94 ml air/cm H2O (g body weight × 10^6) and 71 ml air/cm H2O (g body weight × 10^6); the “Dynamic Compliance, 30 minutes” value was 52 ml air/cm H2O (g body weight × 10^6) and 149 ml air/cm H2O (g body weight × 10^6) and 130 ml air/cm H2O (g body weight × 10^6); the “Dynamic Compliance, 40 minutes after surfactant instillation” value is 78 ml air/cm H2O (g body weight × 10^6) and 149 ml air/cm H2O (g body weight × 10^6) and 156 ml air/cm H2O (g body weight × 10^6). In series [3] (10% peptide to PL, Protocol 4), the “Dynamic Compliance, 50 minutes after surfactant instillation” value was 99 ml air/cm H2O (g body weight × 10^6) and 217 ml air/cm H2O (g body weight × 10^6) and 182 ml air/cm H2O (g body weight × 10^6); the “Dynamic Compliance, 60 minutes” value was 208 ml air/cm H2O (g body weight × 10^6) and 308 ml air/cm H2O (g body weight × 10^6) and 109* ml air/cm H2O (g body weight × 10^6).
In the case of FPIPLPYCWLCRALI [p1-15], in series [1] (PL (DPPC:PG 3:1) 4 mg/ml), the “Pressure Gradient 15″” value is given as 0.94 cm of H2O, the “Pressure Gradient 1′” value is 0.82 cm of H2O and the “Pressure Gradient 5′” value is listed as 0.48 cm of H2O. Further, the “Admixture Formed” value in series [2] (2.5 μg of peptide per μl of solvent, solvent n-propyl alcohol) is on record as “suspension”. Moreover, the “Admixture Formed” value in series [2] (2.5 mg of polypeptide per ml of solvent, solvent N-propanol) is reported as “suspension”. Also, the “lung compliance measured by static compliance, compared with PL alone” value in series [4] is “did not produce improved lung compliance over PL alone”.
“RVVPLVAGGICQCLAERYSVILLDTLLGRMLPQLVCRLVLRCSMDD [p36-81]”: in series [1] (PL (DPPC:PG 3:1) 10 mg/ml), the “Pressure Gradient 15″” value was 0.90 cm of H2O, the “Pressure Gradient 1′” value is 0.87 cm of H2O and the “Pressure Gradient 5′” value is given as 0.79 cm of H2O. Moreover, the “Admixture Formed” value in series [2] (2.5 mg of polypeptide per ml of solvent, solvent 50% chloroform 0% methanol) is on record as “suspension”. Also, in series [3] (5% peptide to PL, Protocol 3), the “Dynamic Compliance, 30 minutes” value was 255 ml air/cm H2O (g body weight × 10^6) and 245 ml air/cm H2O (g body weight × 10^6); the “Dynamic Compliance, 60 minutes” value was 146* ml air/cm H2O (g body weight × 10^6) and 291 ml air/cm H2O (g body weight × 10^6). In series [3] (10% peptide to PL, Protocol 2), the “Dynamic Compliance, 30 minutes” value was 154 ml air/cm H2O (g body weight × 10^6) and 252 ml air/cm H2O (g body weight × 10^6); the “Dynamic Compliance, 60 minutes” value was 1,162 ml air/cm H2O (g body weight × 10^6) and 623 ml air/cm H2O (g body weight × 10^6).
Turning to RYSVILLDTLLGRMLPQLVCRLVLRCSMDD [p52-81], in series [1] (PL (DPPC:PG 3:1) 4 mg/ml), the “Pressure Gradient 15″” value is 1.33 cm of H2O, the “Pressure Gradient 1′” value is reported as 1.19 cm of H2O and the “Pressure Gradient 5′” value is recorded as 0.96 cm of H2O. For the same sequence, in series [2] (2.5 μg of peptide per μl of solvent, solvent methanol:H2O), the “Admixture Formed” value is “suspension”. Moreover, in series [2] (2.5 mg of polypeptide per ml of solvent, solvent 67% DMF 33% chloroform), the “Admixture Formed” value is recorded as “solution”. Further, in series [3] (5% peptide to PL, Protocol 3), the “Dynamic Compliance, 30 minutes” value is 517 ml air/cm H2O (g body weight × 10^6) and 434 ml air/cm H2O (g body weight × 10^6); the “Dynamic Compliance, 60 minutes” value was 226* ml air/cm H2O (g body weight × 10^6) and 55* ml air/cm H2O (g body weight × 10^6). In addition, in series [3] (10% peptide to PL, Protocol 2), the “Dynamic Compliance, 30 minutes” value is 195 ml air/cm H2O (g body weight × 10^6) and 43 ml air/cm H2O (g body weight × 10^6); the “Dynamic Compliance, 60 minutes” value was 1,243 ml air/cm H2O (g body weight × 10^6) and 1,690 ml air/cm H2O (g body weight × 10^6).
